In the OPERA property sets (Mansouri et al. 2018):
Where a SMILES comes first, the peptide text is derived from it.

Row | Structure (SMILES) | logP
1 | Cc1ccc(CO)c(C=NNC(=O)c2ccco2)c1O | 2.67
2 | CC1(C)C=[N+]([O-])C(C)(C)C1 | -0.15
3 | CCC(C)NC(=O)NN (configuration not stated) | -0.84
4 | CCCc1ccccc1CNc1[nH]cnc2ncnc1-2 | 3.47
5 | CCC(C)C(NC(=O)C(N)CC(C)C)C(=O)NC(C(=O)O)C(C)O (stereo not drawn) (H-Leu-Ile-Thr-OH; configuration not given here) | -2.14
6 | Cc1cccc(CNc2[nH]cnc3ncnc2-3)c1 | 2.62
7 | O=C(NS(=O)(=O)c1cnccc1NC1CCCCCC1)N1CCCCCC1 | 4.43
8 | CCNC(=S)NS(=O)(=O)c1cnccc1NC1CCCCCCC1 | 3.86
9 | COC(=O)c1[nH]cc(-c2ccc(Cl)cc2)c1N1CCOCC1 | 3.5
10 | Cc1c(C)c2cc3ccoc3c(C)c2oc1=O | 3.25
11 | COc1cc(Cl)ccc1O | 2.15
12 | N#Cc1cccc(Cn2ccnc2)c1 | 1.01
13 | Cc1ccc(CNc2ncnc3nc[nH]c23)cc1 | 2.66
14 | CC(=NNC(=O)c1ccc(Br)cc1)c1cnccn1 | 2.9
15 | COC(=O)Cn1c(C)nc2ccccc2c1=O | 1.46
16 | CC(C)NC(CO)C(O)c1ccccc1 (configuration not stated) | 1.19
17 | CCOC(=O)CCCn1cc([N+](=O)[O-])nc1C | 0.58
18 | O=c1cc(CCl)occ1O | 0.64
19 | CC1CCN(CC2CN=C(N)O2)CC1 (configuration not stated) | 0.91
20 | CON=C(C(=O)NC1C(=O)N2C(C(C)OC(=O)OC(C)C)=CCSC12)c1csc(N)n1 (configuration not stated) | 1.37
21 | COc1ccc(C2Cc3c(cccc3C(F)(F)F)N(CCN(C)C)C(=O)C2Cc2ccccc2)cc1 (configuration not stated) | 7.2
22 | COc1ccc(CCNCC(O)COc2ccc(-c3nc(C)c(Br)[nH]3)cc2)cc1OC (configuration not stated) | 3.9
23 | O=c1cc(CSC2CCCCC2)occ1O | 1.75
24 | CCN(CC)CC(=O)Nc1ccc(N)cc1 | 1.09
25 | NC(Cc1ccccc1)C(=O)N1CCCC1C(=O)O (stereo not drawn) (H-Phe-Pro-OH; configuration not given here) | -1.23
26 | O=c1ccc2cc3ccoc3cc2s1 | 2.61
27 | CN1COCc2c1ccc1cc3ccc4c(c3nc21)COC(=O)N4 | 1.7
